Results from patent publication US20230226109A1, “METHOD FOR DIFFERENTIATING INNATE LYMPHOID CELLS FOR IMMUNOTHERAPY” (The Board of Trustees of the Leland Stanford Junior …, priority 2019, published 2023).

Key:
peripheral NK cells [1] = assay: in vitro differentiation of peripheral NK cells into ielLC1-like cells, co-culture with epithelial feeder cells; assay type: cell-based, human
Protocol: (A) Protocol for in vitro differentiation of peripheral NK cells into ielLC1-like cells. In brief, PCI13 cells were seeded into a culture plate, then peripheral NK cells were sorted and added to the culture (ratio 10NK:1PCI13) in the presence or not of IL15 (10 ng/mL). After 4 days of co-culture, NK cells were harvested for phenotypic and functional analysis. (B, LEFT) Dot plots show the expression of CD49a and CD103 on gated Lin^−CD45^+CD56^+ NK cells, after culture of NK with PCI13 and IL15 (10 ng/mL) or control conditions. […] (C-D) Functional response of in vitro differentiated ielLC1-like cells. […] (D) After in vitro differentiation, CD49a^− and CD49a^+ cells were sorted and mixed with PCI13 (10^6 NK cells:5.10^6 PCI13) and injected subcutaneously in the flank of NSG mice. Then, tumor volume was measured over time. […] (E) Sorted CD49a^+ and CD49a^− NK cells were assessed for expression of NR4A1, NR4A2, and NR4A3 by qRT-PCR.
In a summary of the protocol for in vitro differentiation of peripheral conventional NK cells into ielLC1-like cells: sorted, enriched, or expanded peripheral NK cells in the presence of IL15 are seeded into culture with cells such as HNSCC, which may be irradiated, or onto plate surfaces that mimic select attributes of these cells. After a suitable period of time for culture, e.g. about 4 days, the differentiated cells are harvested for analysis and effector functions.
• HNSCC cells were harvested from their culture, washed with PBS and counted. • HNSCC cells were then resuspended in media for co-culture, and seeded into plates as follows:
• NK were resuspended with media containing IL-15. • NK cells were added to the co-culture as follows:
• On day 2, half of the supernatant was replaced with fresh media containing IL-15 (20 ng/mL). Harvesting and use of ielLC1-Like Cells. • On day 4, ILC1-like cells were harvested. • Note: The harvested cells were ielLC1-like cells. HNSCC cells were killed during the culture. • ILC1-like cells were washed with PBS and counted. • ILC1-like cells were then used for phenotypic analysis and functional assays.

peripheral NK cells [2] = assay: in vivo differentiation of peripheral NK cells injected intra-tumor into PCI13 tumors; design: species or system NSG mice; conditions: IL15 5 μg/mouse every 2 days, tumors harvested after 6 days
Protocol: (A) Protocol used to evaluate the in vivo differentiation of peripheral NK cells into ILC1-like cells. In brief, 10^6 PCI13 were subcutaneously injected in the flank of NSG mice, after 10-15 days (when the tumor were palpable) peripheral NK cells were obtained from blood and were injected intra-tumor. Mice were treated or not with IL15 (5 μg/mouse) every 2 days. After 6 days, tumors were harvested and the phenotype and function of intra-tumoral NK cells were assessed. (B) According to the protocol described in (A), sorted Lin^−CD56^+ NK cells were intra-tumor injected. […] (C-D) According to the protocol described in (A), sorted Lin^−CD56^+CD94^+CD16^− Stage 4b NK cells were intra-tumor injected. (C, LEFT) Dot plots show the expression of CD49a and CD103 on NK cells obtained following intra-tumor injection of sorted stage 4b NK cells, in the presence or not of IL15 in vivo. […]
10^6 PCI13 tumor cells were subcutaneously injected in the flank of NSG mice, after 10-15 days (when the tumor were palpable) peripheral NK cells were obtained from blood and were injected intra-tumor. […] After 6 days, tumors were harvested and the phenotype and function of intra-tumoral NK cells were assessed.

NK cells = assay: feeder cell-free culture of NK cells, differentiation into ielLC1-like cells; assay type: cell-based, human; conditions: culture plates with or without E-Cadherin coating, NK cells with IL-15, no feeder cells
Source text: FIG. 7: Co-culture of peripheral NK cells with IL-15 and TGFbeta enhances differentiation into ielLC1-like cells. (A) Using a co-culture system similar to FIG. 5A, NK cells were co-cultured with MDCK (top) or PCI-13 (bottom) in the presence of IL-15 and either the TGFbeta receptor 2 inhibitor ITD1 or the ALK receptor inhibitor SB-431542 or TGFb.
FIG. 11: Feeder cell-free culture of NK cells with extracellular matrix components can induce ielLC1-like cell differentiation. Culture plates with or without E-Cadherin coating was used to culture NK cells with IL-15.

[3] = NK cells with IL-15 and PCI-13 carcinoma cells
[4] = NK cells co-cultured with MDCK or PCI-13 in the presence of IL-15

With `Cc1ccccc1N=Nc1ccc(NC(=O)c2ccnn2C)c(C)c1` [CH-223191] the ielLC1-like cell differentiation (peripheral NK cells [1]; [3]) was “profound reduction of ielLC1-like differentiation”.

For `O=Cc1c2[nH]c3ccccc3c2cc2[nH]c3ccccc3c12` [FICZ], the ielLC1-like cell differentiation (peripheral NK cells [1]; [3]) was “promoted the ielLC1-like differentiation”.

For `CCOC(=O)C1=C(C)NC2=C(C(=O)CC(C)(C)C2)C1c1ccc(-c2ccccc2)cc1` (centres unmarked) [ITD1], the ielLC1-like cell differentiation (peripheral NK cells [1]; [4]) was “significant inhibition of ielLC1-like cell differentiation”.

For `NC(=O)c1ccc(-c2nc(-c3ccc4c(c3)OCO4)c(-c3ccccn3)[nH]2)cc1` [SB-431542], the ielLC1-like cell differentiation (peripheral NK cells [1]; [4]) was “significant inhibition of ielLC1-like cell differentiation”.

In the case of “IL-15: 14-15 kDa glycoprotein cytokine (BioLegend; Cat #570306)”, the “differentiation of peripheral NK into ielLC1-like cells (CD49a+, CD49a+CD103+)” value (peripheral NK cells [1]; NK with PCI13 (ratio 10NK:1PCI13), IL15 10 ng/mL, 4 days) is reported as “promotes differentiation of peripheral NK into ielLC1-like cells” and the “differentiation of peripheral NK into ielLC1-like cells in vivo” value (peripheral NK cells [2]) is reported as “promotes differentiation of peripheral NK into ielLC1-like cells in vivo”.

In the case of TGFb, the ielLC1-like cell differentiation (peripheral NK cells [1]; [4]) is reported as “stimulation of the ielLC1-like phenotype”.

B1: E-Cadherin: coating of culture plates, extracellular matrix component, used without feeder cells (protein, UniProt P12830 155-882, looked up)
Cadherin-1: DWVIPPISCPENEKGPFPKNLVQIKSNKDKEGKVFYSITGQGADTPPVGVFIIERETGWLKVTEPLDRERIATYTLFSHAVSSNGNAVEDPMEILITVTDQNDNKPEFTQEVFKGSVMEGALPGTSVMEVTATDADDDVNTYNAAIAYTILSQDPELPDKNMFTINRNTGVISVVTTGLDRESFPTYTLVVQAADLQGEGLSTTATAVITVTDTNDNPPIFNPTTYKGQVPENEANVVITTLKVTDADAPNTPAWEAVYTILNDDGGQFVVTTNPVNNDGILKTAKGLDFEAKQQYILHVAVTNVVPFEVSLTTSTATVTVDVLDVNEAPIFVPPEKRVEVSEDFGVGQEITSYTAQEPDTFMEQKITYRIWRDTANWLEINPDTGAISTRAELDREDFEHVKNSTYTALIIATDNGSPVATGTGTLLLILSDVNDNAPIPEPRTIFFCERNPKPQVINIIDADLPPNTSPFTAELTHGASANWTIQYNDPTQESIILKPKMALEVGDYKINLKLMDNQNKDQVTTLEVSVCDCEGAAGVCRKAQPVEAGLQIPAILGILGGILALLILILLLLLFLRRRAVVKEPLLPPEDDTRDNVYYYDEEGGGEEDQDFDLSQLHRGLDARPEVTRNDVAPTLMSVPRYLPRPANPDEIGNFIDENLKAADTDPTAPPYDSLLVFDYEGSGSEAASLSSLNSSESDKDQDYDYLNEWGNRFKKLADMYGGGEDD
B1 was tested, and the “formation of ielLC1-like cells” value (NK cells) was “enhanced formation of the ielLC1-like cells”.
